From patent US9950998B2, “Sulphated chelating agent” (priority 2012, dated 2018)

Tests used:
[1] = Water solubility; assay type: physicochemical; settings: for water solubility: synthesis example, isolated powder
[2] = pH of 30% solution; assay type: physicochemical
[3] = test system: Total Plate Count Microorganism; assay: Biocide effication plate test, total plate count microorganism; assay type: cell-based; settings: for Total Plate Count: Blanco/Control 2400
[4] = test system: E. Coli; assay: Biocide effication plate test, E. Coli; assay type: cell-based; settings: for Total Plate Count: Blanco 3900
[5] = test system: Staphylococcus Aerus; assay: Biocide effication plate test, Staphylococcus Aerus; assay type: cell-based; settings: biocide dosing 0.025%
[6] = test system: Acinetobacter Anitratus; assay: Antibacterial activity MIC; assay type: cell-based; settings: pH 7-7.5, sample 30% in aqueous solution
Description: (§1) The ability of Tetra Hydroxy Ethyl Di Sulphate-Di Natrium (THES) as a Sulphate chelating agent to open/loosen the cell membrane was tested against two types of bacterias, ie: Staphylococcus aerus (gram positive) that has two cell membrane (the outer membrane as the outer cell wall and the inner membrane) and E. Colli (gram negative) that has three cell membranes. First, the Minimum Inhibitory Concentration (MIC) of each bacterias was determined, then the bacteria membrane alteration after contacting with THES were observed by Electron Microscope (TEM and SEM) with the THES concentration range below and above MIC. Antibacterial activity was tested using disc-diffusion method by checking the clear zone from the paper disc inhibition that contains THES. The growth curve were made by means examining the bacterial culture on the broth media.
(§2) • 1. Bacteria preparation • The testing bacterias were growth on the aqueous medium and incubated for 24 hours at 37° C. • 2. […] This gradual concentration variation is necessary to determine MIC (Minimum Inhibitory Concentration) and the bacteriostatic/bactericidal properties of the tested Biocide. • 3. Determination of Killing method (bacteriostatic and bactericidal properties) • The testing was done on the aqueous medium contains the tested substance with the concentration 5, 10 and 20%. The turbidity of the cultured medium then will be measured every 30 minutes until 270 minutes with spectrophotometer. • 4. Preparation of microbe cells for electron microscope examination • Staphylococcus aereus and Escherichia coli were growth on the aqueous medium within 24 hours, then mixed with tetra hydroxy ethyl di sulphate di sodium (THES) with the final concentration 0.6; 5 and 10%. This system mixtures then was placed under vibrating incubator for several hours. Microbe cells then were separated and washed, first with NaCl 0.9% then with distilled water. Cells then were utilized for the preparation of electron microscope testing. • 5. Preparation for Scanning Electron Microscope (SEM) examination • Bacteria cells were suspended into 4% collodion. The said suspensions then were fixed on some metal disc and were coated with the gold powder. Then were examined with electron microscope and pictured. • 6. Preparation for Transmittance Electron Microscope (TEM) examination • a) The prepared microbes in (5) were fixed into a mixture of formaldehyde 2% and glutaraldehyde 0.5% for 2 hours at 4° C. • b) The above mixtures then was three times washed with pH 7 phosphate buffer, then were diluted into bovin serum albumin (BSA) 1/5 for embedded preparation, while leave glutaraldehyde hardening at room temperature. • c) After leaving dehydrated in alcohol, the white LR resin then will be infiltrated. • d) Embedded process were done at white LR resin following by polymerization process at 60° C. for 48 hours time. The polymerization product as hardened capsules then are ready to be sliced. • e) Making of semi thin and ultra thin slices. • Slices of microbe sample were made by utilizing automatic ultra microtom. To get the precised and accurate slices of sample, semi thin slice were made and coloured with blue toluidine then were examined under the visible microscope. When the right slices were obtained, ultra thin slices were prepared and were made contrast with uranil acetate and lead citrate. The dried ultra thin slices then can be examined with Transmittance Electron Microscope. Testing Results Minimum Inhibitory Concentration (MIC)
(§3) The test done on the pH range of 7-7.5 with the sample of Tetra Hydroxy Ethyl Di Sulphate-Di Natrium (THES-Di Natrium) 30% in aqueous solution.

[7] = test system: Bacillus Subtilis ATCC 6633; assay: Antibacterial activity MIC; assay type: cell-based; settings: pH 7-7.5, sample 30% in aqueous solution
Description: as §1, §2, §3

[8] = test system: Escherichia Coli ATCC 25922; assay: Antibacterial activity MIC; assay type: cell-based; settings: pH 7-7.5, sample 30% in aqueous solution
Description: as §1, §2, §3

[9] = test system: Klebsiella Pneumoniae; assay: Antibacterial activity MIC; assay type: cell-based; settings: pH 7-7.5, sample 30% in aqueous solution
Description: as §1, §2, §3

[10] = test system: Pseudomonas Aeruginosa ATCC 27853; assay: Antibacterial activity MIC; assay type: cell-based; settings: pH 7-7.5, sample 30% in aqueous solution
Description: as §1, §2, §3

[11] = test system: Salmonella Typhii; assay: Antibacterial activity MIC; assay type: cell-based; settings: pH 7-7.5, sample 30% in aqueous solution
Description: as §1, §2, §3

[12] = test system: Staphylococcus Aerus ATCC 6538; assay: Antibacterial activity MIC; assay type: cell-based; settings: pH 7-7.5, sample 30% in aqueous solution
Description: as §1, §2, §3

[13] = test system: Staphylococcus Epidermidis ATCC 12228; assay: Antibacterial activity MIC; assay type: cell-based; settings: pH 7-7.5, sample 30% in aqueous solution
Description: as §1, §2, §3

[14] = test system: Aspergillus Niger; assay: Antifungal activity MIC; assay type: cell-based; settings: pH 7-7.5, sample 30% in aqueous solution
Description: as §1
(§4) • 1. Bacteria preparation • The testing bacterias were growth on the aqueous medium and incubated for 24 hours at 37° C. • 2. […] The turbidity of the cultured medium then will be measured every 30 minutes until 270 minutes with spectrophotometer. • 4. […] The polymerization product as hardened capsules then are ready to be sliced. • e) Making of semi thin and ultra thin slices. • Slices of microbe sample were made by utilizing automatic ultra microtom. […]

[15] = test system: Candida Albicans; assay: Antifungal activity MIC; assay type: cell-based; settings: pH 7-7.5, sample 30% in aqueous solution
Description: as §1, §4

[16] = test system: Escherichia coli ATCC 9637; assay: Electron microscope (TEM and SEM) examination of cell membrane; assay type: cell-based; settings: in contact with 0.05% and 1% THES at pH 7 (FIG. 5)
Description: as §1
(§5) Staphylococcus aerus ATCC 6538, Escherichia coli ATCC 9637 were supplied from Chemotherapy Laboratory of Pharmaceutical Department, Bandung Institute of Technology (ITB).
as §4, with “1.” for “1. Bacteria preparation • The testing bacterias were growth on the aqueous medium and incubated for 24 hours at 37° C. • 2.”

[17] = test system: Staphylococcus Aerus ATCC 6538; assay: as above; assay type: cell-based; settings: in contact with 0.05% and 1% THES at pH 7 (FIG. 4)
Description: as §1, §5
as §4, with “1.” for “1. Bacteria preparation • The testing bacterias were growth on the aqueous medium and incubated for 24 hours at 37° C. • 2.”

O=S(=O)(O)OC(OS(=O)(=O)O)(OS(=O)(=O)O)C(OS(=O)(=O)O)(OS(=O)(=O)O)OS(=O)(=O)O [EHS, Ethyl Hexa Sulphate acid (EHS)]
Solubility @ 25° C. [1]: 48% | water solubility [1]: 48% | pH of 30% solution [2]: 0.0

O=S(=O)([O-])OC(O)(O)C(O)(O)OS(=O)(=O)[O-].[Na+].[Na+] [THES-di Natrium]
Solubility @ 25° C. [1]: 31.5% | water solubility [1]: 31% | pH of 30% solution [2]: 0.5-1.5 | Killing efficiency ([3]; biocide dosing 0.05%): 94.5 | Total Plate Count ([3]; biocide dosing 0.05%): 132 Colony/ml | Killing efficiency ([3]; biocide dosing 0.1%): 95.2 | Total Plate Count ([3]; biocide dosing 0.1%): 115 Colony/ml | Killing efficiency ([3]; biocide dosing 0.5%): 95.8 | Total Plate Count ([3]; biocide dosing 0.5%): 101 Colony/ml | Killing efficiency ([3]; biocide dosing 1.0%): 96.7 | Total Plate Count ([3]; biocide dosing 1.0%): 80 Colony/ml | Killing efficiency ([4]; biocide dosing 0.025%): 48.5 | Total Plate Count ([4]; biocide dosing 0.025%): 2010 Colony/ml | Killing efficiency ([4]; biocide dosing 0.05%): 70.5 | Total Plate Count ([4]; biocide dosing 0.05%): 1150 Colony/ml | Killing efficiency ([4]; biocide dosing 0.1%): 73.1 | Total Plate Count ([4]; biocide dosing 0.1%): 1050 Colony/ml | Killing efficiency ([4]; biocide dosing 0.5%): 75.1 | Total Plate Count ([4]; biocide dosing 0.5%): 970 Colony/ml | Killing efficiency ([4]; biocide dosing 1.0%): 81.5 | Total Plate Count ([4]; biocide dosing 1.0%): 720 Colony/ml | Killing efficiency ([4]; biocide dosing 5.0%): 83.8 | Total Plate Count ([4]; biocide dosing 5.0%): 630 Colony/ml | Killing efficiency [5]: 69.8 | Total Plate Count ([5]; Blanco 980): 296 Colony/ml | Minimum Inhibitory Concentration (MIC) [6]: 0.115% | Minimum Inhibitory Concentration (MIC) [7]: 0.234% | Minimum Inhibitory Concentration (MIC) [8]: 0.234% | Minimum Inhibitory Concentration (MIC) [9]: 0.234% | Minimum Inhibitory Concentration (MIC) [10]: 0.115% | Minimum Inhibitory Concentration (MIC) [11]: 0.115% | Minimum Inhibitory Concentration (MIC) [12]: 0.234% | Minimum Inhibitory Concentration (MIC) [13]: 0.234% | Minimum Inhibitory Concentration (MIC) [14]: 0.937% | Minimum Inhibitory Concentration (MIC) [15]: 0.469% | transversal section (TEM) of cell, cell membrane alteration [16]: also experienced the said internal cell liquid lysis out of its cell wall membrane layers | transversal section (TEM) of cell, cell membrane alteration [17]: partly empty cells that has already lost its cytoplasm liquid due to lysis out of cell wall membrane

O=S(=O)([O-])OC(O)C(O)(OS(=O)(=O)[O-])C(O)(OS(=O)(=O)[O-])C(O)OS(=O)(=O)[O-].[Na+].[Na+].[Na+].[Na+] (stereo not shown) [Tetra Hydroxy Butyl 1,2,3,4 Tetra Sulphate Tetra Natrium]
Solubility @ 25° C. [1]: 27.3% | pH of 30% solution [2]: 0.0-1.0

O=S(=O)(O)OC(O)C(O)(OS(=O)(=O)O)C(O)(OS(=O)(=O)O)C(O)OS(=O)(=O)O (stereo not shown) [Tetra Hydroxy Butyl 1,2,3,4 Tetra Sulphate]
Solubility @ 25° C. [1]: 39.6% | pH of 30% solution [2]: <0.0

O=S(=O)(O)OC(O)(O)C(O)(O)OS(=O)(=O)O [Tetra Hydroxy Ethyl Di Sulphate]
Solubility @ 25° C. [1]: 48.0% | water solubility [1]: 48% | pH of 30% solution [2]: <0.5

O=S(=O)([O-])OOC(O)C(O)(OS(=O)(=O)[O-])C(C(O)OS(=O)(=O)[O-])C(O)OS(=O)(=O)[O-].[Na+].[Na+].[Na+].[Na+] (stereo not shown) [Tetra Hydroxy Isoamyl 1,2,3,4-Tetra Sulphate Tetra Natrium]
Solubility @ 25° C. [1]: 40.1% | pH of 30% solution [2]: 0.0-0.5

O=S(=O)(O)OOC(O)C(O)(OS(=O)(=O)O)C(C(O)OS(=O)(=O)O)C(O)OS(=O)(=O)O (stereo not shown) [Tetra Hydroxy Isoamyl 1,2,3,4-Tetra Sulphate]
Solubility @ 25° C. [1]: 61.2% | pH of 30% solution [2]: <0

O=S(=O)([O-])OC(O)C(C(O)OS(=O)(=O)[O-])C(O)OS(=O)(=O)[O-].[Na+].[Na+].[Na+] (stereo not shown) [Tri Hydroxy Isobutyl 1,2,3-Tri Sulphate Tri Natrium]
Solubility @ 25° C. [1]: 36.2% | pH of 30% solution [2]: 0.0-1.0

O=S(=O)(O)OC(O)C(C(O)OS(=O)(=O)O)C(O)OS(=O)(=O)O (stereo not shown) [Tri Hydroxy Isobutyl 1,2,3-Tri Sulphate]
Solubility @ 25° C. [1]: 56.7% | pH of 30% solution [2]: <0.0
